The values below are quoted from earlier work in US20030035834A1, “Sustained release verapamil pharmaceutical composition free of food effect and a method for alleviating food effect in drug release” (priority 2000, published 2003).

SMILES strings stand for the structures. Where two headings read alike, the source gives them in different places.

Regarding `COc1ccc2c3c1O[C@H]1C(=O)CC[C@@]4(O)[C@@H](C2)N(C)CC[C@]314` [oxycodone], the “difference in availability, fasted vs fed” value by setting is: (extended release tablets) “no difference”; (immediate release aqueous solution) “significant difference”.
